{
  "source": "patent US5892063A",
  "about": "(Hauser, Inc., priority 1997, dated 1999)",
  "key": {"MDA-MB-435": {"test_system": "MDA-MB-435", "assay": "SRB growth screen, breast cancer MDA-MB-435", "assay_type": "cell-based", "details": "Homo sapiens, MDA-MB-435, 48 h"}, "SR": {"test_system": "SR", "assay": "SRB growth screen, leukemia SR", "details": "Homo sapiens, 48 h"}, "K-562": {"test_system": "K-562", "assay": "SRB growth screen, leukemia K-562", "details": "Homo sapiens, K562, 48 h"}, "U251": {"test_system": "U251", "assay": "SRB growth screen, CNS cancer U251", "details": "Homo sapiens, U-251, 48 h"}, "UACC-62": {"test_system": "UACC-62", "assay": "SRB growth screen, melanoma UACC-62", "details": "Homo sapiens, UACC-62, 48 h"}, "HT29": {"test_system": "HT29", "assay": "SRB growth screen, colon cancer HT29", "details": "Homo sapiens, HT-29, 48 h"}, "SF-539": {"test_system": "SF-539", "assay": "SRB growth screen, CNS cancer SF-539", "details": "Homo sapiens, SF-539, 48 h"}, "LOX-IMVI": {"test_system": "LOX-IMVI", "assay": "SRB growth screen, melanoma LOX-IMVI", "details": "Homo sapiens, 48 h"}, "SK-MEL-2": {"test_system": "SK-MEL-2", "assay": "SRB growth screen, melanoma SK-MEL-2", "details": "Homo sapiens, SK-MEL-2, 48 h"}, "UACC-257": {"test_system": "UACC-257", "assay": "SRB growth screen, melanoma UACC-257", "details": "Homo sapiens, UACC-257, 48 h"}, "RPMI-8226": {"test_system": "RPMI-8226", "assay": "SRB growth screen, leukemia RPMI-8226", "details": "Homo sapiens, RPMI-8226, 48 h, read-out: Log10 LC50 (converted)"}, "SN12C": {"test_system": "SN12C", "assay": "SRB growth screen, renal cancer SN12C", "details": "Homo sapiens, 48 h"}, "UO-31": {"test_system": "UO-31", "assay": "SRB growth screen, renal cancer UO-31", "details": "Homo sapiens, UO-31, 48 h"}, "MCF7": {"test_system": "MCF7", "assay": "SRB growth screen, breast cancer MCF7", "details": "Homo sapiens, MCF7, 48 h"}, "SW-620": {"test_system": "SW-620", "assay": "SRB growth screen, colon cancer SW-620", "details": "Homo sapiens, SW-620, 48 h"}, "T-47D": {"test_system": "T-47D", "assay": "SRB growth screen, breast cancer T-47D", "details": "Homo sapiens, T47D, 48 h"}, "RXF-393": {"test_system": "RXF-393", "assay": "SRB growth screen, renal cancer RXF-393", "details": "Homo sapiens, RXF 393, 48 h"}, "PC-3": {"test_system": "PC-3", "assay": "SRB growth screen, prostate cancer PC-3", "details": "Homo sapiens, PC-3, 48 h"}, "HCC-2998": {"test_system": "HCC-2998", "assay": "SRB growth screen, colon cancer HCC-2998", "details": "Homo sapiens, HCC 2998, 48 h"}, "IGROV1": {"test_system": "IGROV1", "assay": "SRB growth screen, ovarian cancer IGROV1", "details": "Homo sapiens, IGROV-1, 48 h"}, "OVCAR-4": {"test_system": "OVCAR-4", "assay": "SRB growth screen, ovarian cancer OVCAR-4", "details": "Homo sapiens, OVCAR-4, 48 h"}, "OVCAR-5": {"test_system": "OVCAR-5", "assay": "SRB growth screen, ovarian cancer OVCAR-5", "details": "Homo sapiens, OVCAR-5, 48 h"}, "DU-145": {"test_system": "DU-145", "assay": "SRB growth screen, prostate cancer DU-145", "details": "Homo sapiens, DU-145, 48 h"}, "MDA-MB-231/ATCC": {"test_system": "MDA-MB-231/ATCC", "assay": "SRB growth screen, breast cancer MDA-MB-231/ATCC", "details": "Homo sapiens, MDA-MB-231, 48 h"}, "HOP-62": {"test_system": "HOP-62", "details": "Homo sapiens, HOP-62, 48 h"}, "[1]": {"details": "read-out: Log10 GI50 (converted)"}, "[2]": {"details": "read-out: Log10 LC50 (converted)"}},
  "data": [
    {"smiles": "CC(=O)O[C@H]1C(=O)[C@@]2(C)[C@H]([C@H](OC(=O)c3ccccc3)[C@]3(O)C[C@H](OC(=O)[C@H](O)[C@@H](NC(=O)C4(C)OC4C)c4ccccc4)C(C)=C1C3(C)C)[C@]1(OC(C)=O)CO[C@@H]1C[C@@H]2O", "note": "(some centres unmarked) [Ceph-epoxide, cephalomannine epoxide]", "values": [
      {"measurement": "GI50", "setting": "MDA-MB-435; [1]", "value": "< 0.01", "unit": "µM"},
      {"measurement": "IC (TGI)", "setting": "MDA-MB-435; read-out: Log10 TGI", "value": "< 0.01", "unit": "µM"},
      {"measurement": "GI50", "setting": "SR; [1]", "value": "< 0.01", "unit": "µM"},
      {"measurement": "CC50", "setting": "SR; [2]", "value": "> 100", "unit": "µM"},
      {"measurement": "GI50", "setting": "K-562; [1]", "value": "< 0.01", "unit": "µM"},
      {"measurement": "CC50", "setting": "K-562; [2]", "value": "> 100", "unit": "µM"},
      {"measurement": "IC (TGI)", "setting": "K-562; read-out: Log10 TGI", "value": "> 100", "unit": "µM"},
      {"measurement": "GI50", "setting": "U251; [1]", "value": "< 0.01", "unit": "µM"},
      {"measurement": "CC50", "setting": "U251; [2]", "value": "> 100", "unit": "µM"},
      {"measurement": "GI50", "setting": "UACC-62; [1]", "value": "< 0.01", "unit": "µM"},
      {"measurement": "CC50", "setting": "UACC-62; [2]", "value": "> 100", "unit": "µM"},
      {"measurement": "IC (TGI)", "setting": "UACC-62; read-out: Log10 TGI", "value": "> 100", "unit": "µM"},
      {"measurement": "GI50", "setting": "HT29; [1]", "value": "< 0.01", "unit": "µM"},
      {"measurement": "CC50", "setting": "HT29; [2]", "value": "> 100", "unit": "µM"},
      {"measurement": "IC (TGI)", "setting": "HT29; read-out: Log10 TGI", "value": 0.115, "unit": "µM"},
      {"measurement": "GI50", "setting": "SF-539; [1]", "value": "< 0.01", "unit": "µM"},
      {"measurement": "CC50", "setting": "SF-539; [2]", "value": 0.0407, "unit": "µM"},
      {"measurement": "IC (TGI)", "setting": "SF-539; read-out: Log10 TGI", "value": "< 0.01", "unit": "µM"},
      {"measurement": "GI50", "setting": "LOX-IMVI; [1]", "value": "< 0.01", "unit": "µM"},
      {"measurement": "CC50", "setting": "LOX-IMVI; [2]", "value": "> 100", "unit": "µM"},
      {"measurement": "IC (TGI)", "setting": "LOX-IMVI; read-out: Log10 TGI", "value": 21.4, "unit": "µM"},
      {"measurement": "GI50", "setting": "SK-MEL-2; [1]", "value": "< 0.01", "unit": "µM"},
      {"measurement": "CC50", "setting": "SK-MEL-2; [2]", "value": "> 100", "unit": "µM"},
      {"measurement": "GI50", "setting": "UACC-257; [1]", "value": 0.0209, "unit": "µM"},
      {"measurement": "CC50", "setting": "UACC-257; [2]", "value": "> 100", "unit": "µM"},
      {"measurement": "IC (TGI)", "setting": "UACC-257; read-out: Log10 TGI", "value": "> 100", "unit": "µM"},
      {"measurement": "CC50", "setting": "RPMI-8226", "value": "> 100", "unit": "µM"},
      {"measurement": "GI50", "setting": "SN12C; [1]", "value": "< 0.01", "unit": "µM"},
      {"measurement": "CC50", "setting": "SN12C; [2]", "value": "> 100", "unit": "µM"},
      {"measurement": "IC (TGI)", "setting": "SN12C; read-out: Log10 TGI", "value": "> 100", "unit": "µM"},
      {"measurement": "GI50", "setting": "UO-31; [1]", "value": 2, "unit": "µM"},
      {"measurement": "CC50", "setting": "UO-31; [2]", "value": "> 100", "unit": "µM"},
      {"measurement": "IC (TGI)", "setting": "UO-31; read-out: Log10 TGI", "value": "> 100", "unit": "µM"},
      {"measurement": "GI50", "setting": "MCF7; [1]", "value": "< 0.01", "unit": "µM"},
      {"measurement": "CC50", "setting": "MCF7; [2]", "value": "> 100", "unit": "µM"},
      {"measurement": "IC (TGI)", "setting": "MCF7; read-out: Log10 TGI", "value": "> 100", "unit": "µM"},
      {"measurement": "CC50", "setting": "SW-620; [2]", "value": "> 100", "unit": "µM"},
      {"measurement": "IC (TGI)", "setting": "SW-620; read-out: Log10 TGI", "value": "> 100", "unit": "µM"},
      {"measurement": "GI50", "setting": "T-47D; [1]", "value": 15.5, "unit": "µM"},
      {"measurement": "CC50", "setting": "T-47D; [2]", "value": "> 100", "unit": "µM"},
      {"measurement": "IC (TGI)", "setting": "T-47D; read-out: Log10 TGI", "value": "> 100", "unit": "µM"},
      {"measurement": "GI50", "setting": "RXF-393; [1]", "value": 0.214, "unit": "µM"},
      {"measurement": "CC50", "setting": "RXF-393; [2]", "value": "> 100", "unit": "µM"},
      {"measurement": "IC (TGI)", "setting": "RXF-393; read-out: Log10 TGI", "value": "> 100", "unit": "µM"},
      {"measurement": "GI50", "setting": "PC-3; [1]", "value": 0.0112, "unit": "µM"},
      {"measurement": "CC50", "setting": "PC-3; [2]", "value": "> 100", "unit": "µM"},
      {"measurement": "IC (TGI)", "setting": "PC-3; read-out: Log10 TGI", "value": "> 100", "unit": "µM"},
      {"measurement": "GI50", "setting": "HCC-2998; [1]", "value": "< 0.01", "unit": "µM"},
      {"measurement": "CC50", "setting": "HCC-2998; [2]", "value": "> 100", "unit": "µM"},
      {"measurement": "IC (TGI)", "setting": "HCC-2998; read-out: Log10 TGI", "value": 0.0457, "unit": "µM"},
      {"measurement": "GI50", "setting": "IGROV1; [1]", "value": "< 0.01", "unit": "µM"},
      {"measurement": "CC50", "setting": "IGROV1; [2]", "value": "> 100", "unit": "µM"},
      {"measurement": "GI50", "setting": "OVCAR-4; [1]", "value": 3.89, "unit": "µM"},
      {"measurement": "CC50", "setting": "OVCAR-4; [2]", "value": "> 100", "unit": "µM"},
      {"measurement": "IC (TGI)", "setting": "OVCAR-4; read-out: Log10 TGI", "value": "> 100", "unit": "µM"},
      {"measurement": "GI50", "setting": "OVCAR-5; [1]", "value": 0.0275, "unit": "µM"},
      {"measurement": "CC50", "setting": "OVCAR-5; [2]", "value": "> 100", "unit": "µM"},
      {"measurement": "IC (TGI)", "setting": "OVCAR-5; read-out: Log10 TGI", "value": 4.79, "unit": "µM"},
      {"measurement": "GI50", "setting": "DU-145; [1]", "value": 0.0263, "unit": "µM"},
      {"measurement": "CC50", "setting": "DU-145; [2]", "value": "> 100", "unit": "µM"},
      {"measurement": "IC (TGI)", "setting": "DU-145; read-out: Log10 TGI", "value": 0.145, "unit": "µM"},
      {"measurement": "GI50", "setting": "MDA-MB-231/ATCC; [1]", "value": 0.0182, "unit": "µM"},
      {"measurement": "CC50", "setting": "MDA-MB-231/ATCC; [2]", "value": "> 100", "unit": "µM"},
      {"measurement": "GI50", "setting": "HOP-62; [1]", "value": 0.0245, "unit": "µM"},
      {"measurement": "CC50", "setting": "HOP-62; [2]", "value": "> 100", "unit": "µM"}
    ]}
  ]
}
